Patent publication US5314999A, “Derivatives of basic polyene macrolides and their preparation” (Laboratoires Mayoly-Spindler, priority 1989, dated 1994)
Where two headings read alike, the source gives them in different places.

Key:
Type in all cases: cell-based
[1] = test system: Candida albicans B 2630; assay: Growth inhibition in liquid medium (Sabouraud broth); conditions: B2630, Sabouraud broth, 28° C., 18 hours, read-out: IC 50 (growth-inhibiting concentration of 50%)
Procedure: (§1) A.1 : Study of the antibiotic efficiency of AmB derivatives in liquid medium against different yeasts
(§2) The antibiotic efficiency was tested by the growth inhibition method in liquid medium (Sabouraud broth) in the presence of different concentrations of the derivatives studied.
(§3) A yeast suspension was cultivated in a broth in such a manner that about 1×10^2 cell/ml were obtained.
(§4) The tubes containing the different concentrations of antifungal substance were inoculated with the same amount of yeast cells, and were then incubated at 28° C. for 18 hours with stirring. For each concentration of antifungal substance, two identical tubes were prepared.
(§5) The inhibition of fungal growth corresponding to the different concentrations was evaluated for each molecule by spectrophotometry at 620 nm and expressed in percent with respect to a reference solution without antifungal substance.

[2] = test system: Candida albicans; assay: as above; conditions: Candida albicans, 18 h, Sabouraud broth, 28° C., 18 hours; read-out: IC 50 (growth-inhibiting concentration of 50%)
Procedure: as §1, §2, §3, §4, §5

[3] = test system: Cryptoccocus neoformans; assay: as above; conditions: 18 h, Sabouraud broth, 28° C., 18 hours; read-out: IC 50 (growth-inhibiting concentration of 50%)
Procedure: as §1, §2, §3, §4, §5

[4] = test system: Pytirosporum orbiculare; assay: as above; conditions: Sabouraud broth, 28° C., 18 hours; read-out: IC 50 (growth-inhibiting concentration of 50%)
Procedure: as §1, §2, §3, §4, §5

[5] = test system: Saccharomyces cerevisiae; assay: as above; conditions: Saccharomyces cerevisiae, 18 h, Sabouraud broth, 28° C., 18 hours; read-out: IC 50 (growth-inhibiting concentration of 50%)
Procedure: as §1, §2, §3, §4, §5

[6] = test system: Aspergillus flavus; assay: Diffusion method in agar-agar medium (Sabouraud agar-agar); conditions: Sabouraud agar-agar, disc diameter 1 cm, 0.1 ml
Procedure: (§6) A.2 : Study of the antibiotic efficiency of amphotericine B derivatives in agar-agar medium against Aspergillus
(§7) The antibiotic activity was tested by the diffusion method in agar-agar medium (Sabouraud agar-agar).
(§8) The efficiency of each molecule was determined by the size of the growth-inhibiting zone around a WHATMAN 3M paper disc impregnated with the antibiotic substance of a given concentration.
(§9) A suspension of Aspergillus spores in a broth was prepared, 0.2 ml of this suspension was used to inoculate at its surface an agar-agar medium which was solidified in such a manner that a homogeneous growth layer was obtained. After spreading, the WHATMAN 3M paper discs (diameter: 1 cm) were placed on the surface of the agar-agar, and then impregnated with 0.1 ml of the antibiotic substance at different concentrations.

[7] = test system: Aspergillus fumigatus; assay: as above; conditions: Aspergillus fumigatus, Sabouraud agar-agar, disc diameter 1 cm, 0.1 ml; read-out: concentration giving a growth inhibition of 1 cm around a disc in solid medium
Procedure: as §6, §7, §8, §9

[8] = Toxicity on red corpuscles (lysis), mice; conditions: mouse, red blood cells, 37° C., 1 hour 30, read-out: LD 50 (dose which leads to lysis in 50% of the erythrocytes)
Procedure: (§10) B.1: Study of the toxicity on red corpuscles
(§11) All the solutions of the AmB derivatives according to the invention were prepared immediately before use by diluting 4 mg of substance in 100 μl of 5% glucose solution, and then, after 15 minutes protected from light, 100 μl of sterile distilled water are added, and the mixture is made up to stock solutions of 4 mg/ml with a 5% glucose solution. For comparative study of the effects of AmB, 4 mg of FUNGIZONE are diluted with 1 ml of 5% glucose.
(§12) The cells are prepared by placing 1 ml of a peripheral blood sample into a tube together with Ficollhypaque to remove the lymphocytes, and then centrifuging the mixture at 2000 rpm for 20 minutes. The remaining red corpuscles are recovered, washed once with 0.9% NaCl and then twice with 150 Mm KCl, 0.5 Mm tris-HCl, pH 7.4.
(§13) A 1.25% suspension is then prepared with 150 mM KCl solution, 0.5 mM tris-HCl, pH 7.4, and 150 μl thereof are distributed in wells along with 50 μl of each of the dilutions of the derivatives, plus a control well (5% glucose solution).
(§14) The cells are then incubated at 37° C. in a steam cabinet for 1 hour 30.
(§15) To evaluate the cell lysis, haemoglobin is essayed by removing 100 μl of the supernatant in each well and diluting the sample with 1 ml of distilled water.
(§16) The haemoglobin concentration is calculated by measuring the optical density at 540 nm and taking into account the absorption of the derivatives of amphotericine B.
(§17) LD 50 is the dose which leads to lysis in 50% of the erythrocytes (a control of 100% lysis is obtained with distilled water, and reference lysis of 0% is obtained with the 5% glucose solution).

[9] = Toxicity on nucleated cells, mice T lymph gland cells; conditions: mouse, 1 hour 30, trypan blue, read-out: LD 50 (concentration leading to a mortality of 50%)
Procedure: (§18) B.2: Study of the toxicity on nucleated cells
(§19) The solutions of the amphotericine B derivatives are prepared similarly to those mentioned in paragraph B.1.
(§20) The cells are prepared by placing 20 ml of blood diluted to 1/2 with 0.9% NaCl into a tube together with 10 ml of Ficoll-hypaque, and the mixture is centrifuged at 2000 rpm for 30 minutes. The cell nuclei are recovered and washed twice with PBS buffer containing 5% of foetal calf serum.
(§21) The cells are prepared by suspending 1.14×10^6 cells/ml in RPMI 1640 containing 2.5% of foetal calf serum and by filling each well with 150 μl. 50 μl of each dilution of the derivatives are added and also one control (5% glucose solution).
(§22) The cells are then incubated in a steam cabinet at a CO2 concentration of 5% for 1 hour 30 at 37° C. or at ambient temperature.
(§23) To evaluate the toxicity of the derivatives, a cell count in the presence of trypan blue is made, and the LD 50 (concentration of the derivative leading to a mortality of 50%) is calculated with respect to the control (5% glucose solution) for each concentration of each derivative.

[10] = Toxicity on nucleated cells, mice B lymph gland cells; conditions: mouse, 1 hour 30, trypan blue, read-out: LD 50 (concentration leading to a mortality of 50%)
Procedure: as §18, §19, §20, §21, §22, §23

[11] = Toxicity on nucleated cells, mice thymocytes; conditions: mouse, thymocytes, 1 hour 30, trypan blue, read-out: LD 50 (concentration leading to a mortality of 50%)
[12] = Toxicity on nucleated cells, X 63 mice lymphoma B; conditions: mouse, x 63 lymphoma cells, 1 hour 30, trypan blue, read-out: LD 50 (concentration leading to a mortality of 50%)
[13] = test system: PBL; assay: Toxicity on nucleated cells, human PBL; conditions: 90 min
Procedure: as §18, §19, §20, §21, §22, §23

[14] = test system: red corpuscles; assay: Toxicity on red corpuscles (lysis), human; conditions: 37° C., 1 hour 30, 90 min, 90 min, read-out: LD 50 (dose which leads to lysis in 50% of the erythrocytes)
Procedure: as §10, §11, §12, §13, §14, §15, §16, §17

[15] = Toxicity on nucleated cells, human bone marrow; conditions: 1 hour 30, trypan blue, read-out: LD 50 (concentration leading to a mortality of 50%)
Procedure: as §18, §19, §20, §21, §22, §23

[16] = Toxicity on nucleated cells, human thymocytes; conditions: 1 hour 30, trypan blue, read-out: LD 50 (concentration leading to a mortality of 50%)
Procedure: as §18, §19, §20, §21, §22, §23

[17] = test system: DAUDI (human lymphoma B); assay: Toxicity on nucleated cells, DAUDI human lymphoma B; conditions: 1 hour 30, trypan blue, 90 min, read-out: LD 50 (concentration leading to a mortality of 50%)
[18] = test system: red corpuscles; assay: Toxicity on red corpuscles (lysis), mice; conditions: 37° C., 1 hour 30, 90 min, 90 min, read-out: LD 50 (dose which leads to lysis in 50% of the erythrocytes)
Procedure: as §10, §11, §12, §13, §14, §15, §16, §17

[19] = test system: X 63 (mice lymphoma B); assay: Toxicity on nucleated cells, X 63 mice lymphoma B; conditions: 1 hour 30, trypan blue, 90 min, read-out: LD 50 (concentration leading to a mortality of 50%)
[20] = Toxicity on nucleated cells, DAUDI human lymphoma B; conditions: human, daudi lymphoma b cells, 1 hour 30, trypan blue, read-out: LD 50 (concentration leading to a mortality of 50%)
[21] = human PBL, 1 hour 30, trypan blue, read-out: LD 50 (concentration leading to a mortality of 50%)

Row | Structure (SMILES) | IC50 [1] [µM] | IC50 [2] [µM] | IC50 [3] [µM] | IC50 [4] [µM] | IC50 [5] [µM] | concentration giving a growth inhibition of 1 cm around a disc in solid medium [6] | IC (1 cm inhibition zone) [7] [µM] | CC50 at 1.5 h [9] [µM] | CC50 at 1.5 h [10] [µM] | CC50 at 1.5 h [11] [µM] | CC50 [13, 21] [µM] | HC50 [14] [µM] | CC50 at 1.5 h [15] [µM] | CC50 at 1.5 h [16] [µM] | also measured
1 | C[C@@H]1[C@H](O)[C@@H](C)/C=C/C=C/C=C/C=C/C=C/C=C/C=C/[C@H](O[C@@H]2O[C@H](C)[C@@H](O)[C@H](NCC3(O)O[C@H](C(N)=O)[C@@H](O)[C@@H]3O)[C@@H]2O)C[C@@H]2O[C@](O)(C[C@@H](O)C[C@@H](O)[C@H](O)CC[C@@H](O)C[C@@H](O)CC(=O)O[C@H]1C)C[C@H](O)[C@H]2C(=O)O (stereo partly drawn) [AmB 12 F, 1-amino-1-deoxy-D-arabinoglucuronamidyl-AmB] | 0.24 | 0.09 | 0.065 | 0.096 | 1.1 | 3 × 10^-4 molarity | 80 | 10 | 10 | 4 | > 1000 | 100 | > 1000 | > 300 | HC50 at 1.5 h [8]: 20 µM; CC50 at 1.5 h [12]: > 1000 µM; CC50 ([13]; human PBLs, AmB 12 derivative, comparison of different catalysts (Table 4), listed as Oxalic acid NMG salt, read-out: LD 50 (the source's name)): > 1000 µM; CC50 [17]: > 1000 µM
2 | C[C@@H]1[C@H](O)[C@@H](C)/C=C/C=C/C=C/C=C/C=C/C=C/C=C/[C@H](O[C@@H]2O[C@H](C)[C@@H](O)[C@H](NCC(=O)[C@@H](O)[C@@H]3OC(c4ccccc4)OC[C@H]3O)[C@@H]2O)C[C@@H]2O[C@](O)(C[C@@H](O)C[C@@H](O)[C@H](O)CC[C@@H](O)C[C@@H](O)CC(=O)O[C@H]1C)C[C@H](O)[C@H]2C(=O)O (stereo partly drawn) [AmB 20 F, 1-deoxy-1-amino-4,6-O-benzylidene-D-fructosyl-AmB] | 0.15 | 0.085 | 0.045 | 0.1 | 1.1 | 1.5 × 10^-4 molarity | 200 | 100 | 100 | 8 | > 1000 | 200 | 1000 | > 300 | HC50 [18]: 120 µM; CC50 [19]: > 1000 µM; CC50 at 1.5 h [20]: > 1000 µM
